Assay results from patent US10730836B2, “Forms of apremilast” (Johnson Matthey Public Limited Company, priority 2016, dated 2020).
Blank lines part the entries; values can stand above or below the compound they belong to.

How the values were obtained:
[1] = Moisture uptake on exposure to air (DSC/TGA); assay type: physicochemical; conditions: DSC thermogram and TGA plot show water in sample
Description: DSC data were collected using a TA Instruments Q10 DSC. Approximately, samples (2-8 mg) were placed in unsealed but covered hermetic alodined aluminum sample pans and scanned from 30 to 300° C. at a rate of 10° C./min under a nitrogen purge of 50 mL/min.
TGA data were collected using a TA Instruments TGA Q500. Approximately, samples (5-10 mg) were placed in an open, pre-tared aluminum sample pan and scanned from 25 to 300° C. at a rate of 10° C./min using a nitrogen purge at 60 mL/min.
(§1) Apremilast Form K, an anhydrous form, is a unique crystalline phase. […] FIG. 4 is a representative XRPD pattern for a representative sample of apremilast Form K made according to Example 4.

[2] = Exposure to humidity (XRPD); assay type: physicochemical; conditions: exposed to high humidity
Description: (§2) XRPD patterns were obtained using a Bruker D8 Advance equipped with a Cu Kα radiation source (λ=1.54° A), a 9-position sample holder and a LYNXEYE super speed detector. Samples were placed on zero-background, silicon plate holders for analysis. One skilled in the art would recognize that the ° 2θ values and the relative intensity values are generated by performing a peak search on the measured data and the d-spacing values are calculated by the instrument from the ° 2θ values using Bragg's equation. One skilled in the art would further recognize that the relative intensity for the measured peaks may vary as a result of sample preparation, orientation and instrument used, for example.
as §1
(§3) Apremilast Form M, a solvate, is a unique crystalline phase. FIG. 5 is a representative XRPD pattern for a representative sample of apremilast Form M made according to Example 5.

[3] = tested on: phosphodiesterase (PDE4); conditions: cited from earlier work
[4] = tested on: human rheumatoid synovial cells; conditions: cited from earlier work
[5] = Solid form stability under stressed conditions (45° C., relative humidity>95%); assay type: physicochemical; conditions: under 45° C. and humid conditions (relative humidity>95%)
Description: (§4) Apremilast Form H, a solvate, is a unique crystalline phase. […] FIG. 1 is a representative XPRD pattern for a representative sample of apremilast Form H made according to Example 1. Apremilast Form H is stable under stressed conditions, i.e. at under 45° C. and humid conditions (relative humidity>95%).
as §4, with “I,” for “H,”, “2” for “1”, “XRPD” for “XPRD”, “I” for “H”, “2.” for “1.”

[6] = Drying under vacuum at 45° C. (solid form change); assay type: physicochemical; conditions: dried under vacuum at 45° C.
Description: Apremilast Form J, a solvate, is a unique crystalline phase. […] FIG. 3 is a representative XRPD pattern for a representative sample of apremilast Form J made according to Example 3.
as §3
[…] The resulting solids are analyzed by XRPD and identified as apremilast Form K.

[7] = Prolonged slurry (form conversion, XRPD); assay type: physicochemical; conditions: XRPD FIG. 6
Description: as §2, §3

- stability under stressed conditions [5]: stable
SMILES: CCOc1cc([C@@H](CS(C)(=O)=O)N2C(=O)c3cccc(NC(C)=O)c3C2=O)ccc1OC [Apremilast Form H, (+)-2-[1-(3-ethoxy-4-methoxyphenyl)-2-methylsulfonylethyl]-4-acetylaminoisoindoline-1,3-dione]

- form conversion upon prolonged slurry [7]: converts to apremilast
SMILES: CCOc1cc([C@@H](CS(C)(=O)=O)N2C(=O)c3cccc(NC(C)=O)c3C2=O)ccc1OC [Form M, (+)-2-[1-(3-ethoxy-4-methoxyphenyl)-2-methylsulfonylethyl]-4-acetylaminoisoindoline-1,3-dione]
- solid form behaviour when dried under vacuum [6]: tends to lose some of the acetic acid when dried under vacuum at 45 °C and results in a semi-crystalline form

The next lines start with the compound.

SMILES: CCOc1cc([C@@H](CS(C)(=O)=O)N2C(=O)c3cccc(NC(C)=O)c3C2=O)ccc1OC [Form K, (+)-2-[1-(3-ethoxy-4-methoxyphenyl)-2-methylsulfonylethyl]-4-acetylaminoisoindoline-1,3-dione]
- moisture uptake when exposed to air [1]: picks up moisture
- form change when exposed to humidity [2]: does not undergo a significant change

SMILES: CCOc1cc([C@@H](CS(C)(=O)=O)N2C(=O)c3cccc(NC(C)=O)c3C2=O)ccc1OC [Apremilast, (+)-2-[1-(3-ethoxy-4-methoxyphenyl)-2-methylsulfonylethyl]-4-acetylaminoisoindoline-1,3-dione]
- PDE4 inhibition [3]: inhibits PDE4
- inhibition of spontaneous production of TNF-alpha [4]: inhibits spontaneous production of TNF-alpha

SMILES: CCOc1cc([C@@H](CS(C)(=O)=O)N2C(=O)c3cccc(NC(C)=O)c3C2=O)ccc1OC [Apremilast Form J, (+)-2-[1-(3-ethoxy-4-methoxyphenyl)-2-methylsulfonylethyl]-4-acetylaminoisoindoline-1,3-dione]
- solid form behaviour when dried under vacuum [6]: loses formic acid when dried under vacuum at 45 °C and undergoes a form change, resulting in the anhydrous Form K
